Test [1] deals with Tyrosine-protein kinase ABL2 (Homo sapiens) (UniProt P42684). The experiment in a line: Inhibition of human truncated Arg expressed in baculovirus assessed as substrate phosphorylation using fluorescence-labelled peptides as substrate at 2 uM after 90 mins by microfluidic peptide phosphorylation assay.
Test [2] concerns the target Casein kinase I isoform alpha (Homo sapiens) (UniProt P48729). Put plainly: Inhibition of human full length CSNK1A1 expressed in baculovirus assessed as substrate phosphorylation using fluorescence-labelled peptides as substrate at 0.1 uM after 90 mins by microfluidic peptide phosphorylation assay.
The subject of test [3] is Tyrosine-protein kinase ABL1 (Homo sapiens), P00519 [Q252H]. Put plainly: Inhibition of human truncated ABL Q252H mutant expressed in baculovirus assessed as substrate phosphorylation using fluorescence-labelled peptides as substrate at 0.2 uM after 90 mins by microfluidic peptide phosphorylation assay.
The target in test [4] is T1, Serine/threonine-protein kinase Sgk1 (Homo sapiens) (UniProt O00141).
T1 sequence (whole entry): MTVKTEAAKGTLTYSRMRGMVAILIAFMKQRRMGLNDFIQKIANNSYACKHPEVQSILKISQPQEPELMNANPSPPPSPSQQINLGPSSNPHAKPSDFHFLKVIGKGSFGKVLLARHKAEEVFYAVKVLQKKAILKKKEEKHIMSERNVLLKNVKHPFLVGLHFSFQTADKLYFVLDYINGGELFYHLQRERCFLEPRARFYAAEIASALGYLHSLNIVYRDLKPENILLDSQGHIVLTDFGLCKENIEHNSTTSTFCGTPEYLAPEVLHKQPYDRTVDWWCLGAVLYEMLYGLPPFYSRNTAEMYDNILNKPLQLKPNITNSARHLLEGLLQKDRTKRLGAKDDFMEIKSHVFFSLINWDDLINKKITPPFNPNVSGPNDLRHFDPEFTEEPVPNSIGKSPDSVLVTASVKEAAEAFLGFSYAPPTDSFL
Put plainly: Inhibition of human truncated SGK1 expressed in baculovirus assessed as substrate phosphorylation using fluorescence-labelled peptides as substrate at 0.06 uM after 90 mins by microfluidic peptide phosphorylation assay.

Test [5] deals with T2, Inhibitor of nuclear factor kappa-B kinase subunit beta (Homo sapiens) (UniProt O14920).
T2 sequence (whole entry): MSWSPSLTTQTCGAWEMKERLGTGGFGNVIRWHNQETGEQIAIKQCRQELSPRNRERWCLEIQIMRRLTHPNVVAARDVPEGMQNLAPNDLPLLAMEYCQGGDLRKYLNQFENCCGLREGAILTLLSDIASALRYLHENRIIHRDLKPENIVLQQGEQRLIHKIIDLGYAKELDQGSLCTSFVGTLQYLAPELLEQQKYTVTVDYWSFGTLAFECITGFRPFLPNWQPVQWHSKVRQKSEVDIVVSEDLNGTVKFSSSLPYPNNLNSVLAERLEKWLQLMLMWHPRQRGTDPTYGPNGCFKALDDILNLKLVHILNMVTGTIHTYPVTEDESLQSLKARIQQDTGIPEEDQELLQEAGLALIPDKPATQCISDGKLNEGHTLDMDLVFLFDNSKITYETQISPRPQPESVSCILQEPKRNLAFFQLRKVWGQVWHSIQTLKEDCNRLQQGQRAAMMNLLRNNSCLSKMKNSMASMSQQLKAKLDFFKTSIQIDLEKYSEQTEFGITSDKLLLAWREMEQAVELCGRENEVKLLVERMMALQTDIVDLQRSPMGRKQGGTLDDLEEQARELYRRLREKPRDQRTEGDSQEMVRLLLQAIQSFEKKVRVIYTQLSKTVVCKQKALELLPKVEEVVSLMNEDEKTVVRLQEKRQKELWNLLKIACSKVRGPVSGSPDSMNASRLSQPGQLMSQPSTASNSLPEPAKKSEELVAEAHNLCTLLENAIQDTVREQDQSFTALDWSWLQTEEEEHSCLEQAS
Put plainly: Inhibition of human full length IKK beta expressed in baculovirus assessed as substrate phosphorylation using fluorescence-labelled peptides as substrate at 0.06 uM after 90 mins by microfluidic peptide phosphorylation assay.

Test [6] has as its target T3, Serine/threonine-protein kinase BRSK2 (Homo sapiens) (UniProt Q8IWQ3).
T3 sequence (whole entry): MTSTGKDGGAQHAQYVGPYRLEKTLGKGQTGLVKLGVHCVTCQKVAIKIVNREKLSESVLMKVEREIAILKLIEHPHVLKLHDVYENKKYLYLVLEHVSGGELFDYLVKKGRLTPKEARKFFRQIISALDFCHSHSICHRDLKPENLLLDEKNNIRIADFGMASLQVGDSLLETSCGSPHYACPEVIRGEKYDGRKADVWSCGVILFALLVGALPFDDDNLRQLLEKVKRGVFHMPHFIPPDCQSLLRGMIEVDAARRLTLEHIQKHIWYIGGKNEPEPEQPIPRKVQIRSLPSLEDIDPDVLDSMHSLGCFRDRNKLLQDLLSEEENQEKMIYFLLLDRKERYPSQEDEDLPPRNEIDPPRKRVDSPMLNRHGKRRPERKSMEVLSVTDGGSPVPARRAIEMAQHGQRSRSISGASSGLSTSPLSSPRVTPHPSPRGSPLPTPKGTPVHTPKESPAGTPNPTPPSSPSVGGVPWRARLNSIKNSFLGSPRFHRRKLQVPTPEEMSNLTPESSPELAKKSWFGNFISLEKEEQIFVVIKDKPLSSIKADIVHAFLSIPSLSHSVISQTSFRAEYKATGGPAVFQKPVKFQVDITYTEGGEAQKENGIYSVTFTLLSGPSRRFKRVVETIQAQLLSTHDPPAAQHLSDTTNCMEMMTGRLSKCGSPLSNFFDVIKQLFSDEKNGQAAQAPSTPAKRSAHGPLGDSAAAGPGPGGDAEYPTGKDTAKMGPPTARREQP
The experiment in a line: Inhibition of human truncated BRSK2 expressed in baculovirus assessed as substrate phosphorylation using fluorescence-labelled peptides as substrate at 0.06 uM after 90 mins by microfluidic peptide phosphorylation assay.

The target in test [7] is MAP kinase p38 (Homo sapiens) (UniProt O15264+Q15759+Q16539+P53778). Put plainly: Inhibition of human full length p38 beta2 expressed in Escherichia coli cell assessed as substrate phosphorylation using fluorescence-labelled peptides as substrate at 9 uM after 90 mins by microfluidic peptide phosphorylation assay.
For test [8], the target named is Tyrosine-protein kinase Lyn (Homo sapiens) (UniProt P07948). The experiment in a line: Inhibition of human full length LYN expressed in baculovirus assessed as substrate phosphorylation using fluorescence-labelled peptides as substrate at 95 uM after 90 mins by microfluidic peptide phosphorylation assay.
Tyrosine-protein kinase Lyn (Homo sapiens), sequence (P07948 2-512 limits assumed): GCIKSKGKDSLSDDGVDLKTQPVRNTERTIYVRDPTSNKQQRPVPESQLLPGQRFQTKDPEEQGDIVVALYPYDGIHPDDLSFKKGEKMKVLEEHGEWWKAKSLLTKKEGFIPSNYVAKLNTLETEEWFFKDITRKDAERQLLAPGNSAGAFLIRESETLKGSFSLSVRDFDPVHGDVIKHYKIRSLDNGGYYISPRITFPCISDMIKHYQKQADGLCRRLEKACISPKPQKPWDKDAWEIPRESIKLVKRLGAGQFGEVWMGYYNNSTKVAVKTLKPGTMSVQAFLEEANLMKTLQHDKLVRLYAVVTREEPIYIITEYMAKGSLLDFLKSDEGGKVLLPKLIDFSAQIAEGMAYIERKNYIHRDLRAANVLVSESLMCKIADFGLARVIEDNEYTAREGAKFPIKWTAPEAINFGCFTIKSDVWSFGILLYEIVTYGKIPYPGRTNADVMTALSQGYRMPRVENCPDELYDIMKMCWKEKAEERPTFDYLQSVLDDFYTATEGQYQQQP
Test [9] addresses Cyclin-dependent kinase 2 (Homo sapiens) (UniProt P24941). Put plainly: Inhibition of human full length CDK2 expressed in baculovirus assessed as substrate phosphorylation using fluorescence-labelled peptides as substrate at […] after 90 mins by microfluidic peptide phosphorylation assay.
Test [10] deals with Calcium/calmodulin-dependent protein kinase type II subunit gamma (Homo sapiens) (UniProt Q13555). The experiment in a line: Inhibition of human CAMK2 gamma catalytic domain expressed in baculovirus assessed as substrate phosphorylation using fluorescence-labelled peptides as substrate at 420 uM after 90 mins by microfluidic peptide phosphorylation assay.
Calcium/calmodulin-dependent protein kinase type II subunit gamma (Homo sapiens), sequence (Q13555 whole entry, the tested form may be a part, canonical isoform): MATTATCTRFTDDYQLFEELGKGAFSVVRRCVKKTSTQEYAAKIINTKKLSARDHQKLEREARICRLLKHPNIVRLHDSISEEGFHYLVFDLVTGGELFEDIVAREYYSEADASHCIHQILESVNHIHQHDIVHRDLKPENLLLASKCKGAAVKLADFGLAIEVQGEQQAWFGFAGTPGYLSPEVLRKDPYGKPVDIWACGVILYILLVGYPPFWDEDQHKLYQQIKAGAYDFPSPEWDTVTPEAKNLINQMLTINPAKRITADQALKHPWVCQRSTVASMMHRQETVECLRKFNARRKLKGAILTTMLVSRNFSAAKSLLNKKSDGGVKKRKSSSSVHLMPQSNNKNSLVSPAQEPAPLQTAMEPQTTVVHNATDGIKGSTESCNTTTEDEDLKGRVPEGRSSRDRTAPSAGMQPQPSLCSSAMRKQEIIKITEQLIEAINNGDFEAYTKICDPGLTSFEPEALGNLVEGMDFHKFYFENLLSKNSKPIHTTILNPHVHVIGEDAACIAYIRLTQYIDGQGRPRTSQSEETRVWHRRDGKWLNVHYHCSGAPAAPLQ
The target of test [11] is Casein kinase I isoform alpha (Homo sapiens) (UniProt P48729). Put plainly: Inhibition of human full length CSNK1A1 expressed in baculovirus assessed as substrate phosphorylation using fluorescence-labelled peptides as substrate at 1000 uM after 90 mins by microfluidic peptide phosphorylation assay.
Casein kinase I isoform alpha (Homo sapiens), sequence (P48729 2-337 limits assumed): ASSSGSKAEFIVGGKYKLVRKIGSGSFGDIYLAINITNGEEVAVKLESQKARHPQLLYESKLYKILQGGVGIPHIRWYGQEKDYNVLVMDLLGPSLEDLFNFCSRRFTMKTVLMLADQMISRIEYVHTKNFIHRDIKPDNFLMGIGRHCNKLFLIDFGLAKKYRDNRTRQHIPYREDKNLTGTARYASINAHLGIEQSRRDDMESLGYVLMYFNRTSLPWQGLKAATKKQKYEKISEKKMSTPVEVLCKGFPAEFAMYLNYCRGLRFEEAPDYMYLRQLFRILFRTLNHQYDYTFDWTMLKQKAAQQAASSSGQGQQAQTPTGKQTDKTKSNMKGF

Tyrosine-protein kinase ABL2 (Homo sapiens), sequence (P42684 whole entry, the tested form may be a part, canonical isoform): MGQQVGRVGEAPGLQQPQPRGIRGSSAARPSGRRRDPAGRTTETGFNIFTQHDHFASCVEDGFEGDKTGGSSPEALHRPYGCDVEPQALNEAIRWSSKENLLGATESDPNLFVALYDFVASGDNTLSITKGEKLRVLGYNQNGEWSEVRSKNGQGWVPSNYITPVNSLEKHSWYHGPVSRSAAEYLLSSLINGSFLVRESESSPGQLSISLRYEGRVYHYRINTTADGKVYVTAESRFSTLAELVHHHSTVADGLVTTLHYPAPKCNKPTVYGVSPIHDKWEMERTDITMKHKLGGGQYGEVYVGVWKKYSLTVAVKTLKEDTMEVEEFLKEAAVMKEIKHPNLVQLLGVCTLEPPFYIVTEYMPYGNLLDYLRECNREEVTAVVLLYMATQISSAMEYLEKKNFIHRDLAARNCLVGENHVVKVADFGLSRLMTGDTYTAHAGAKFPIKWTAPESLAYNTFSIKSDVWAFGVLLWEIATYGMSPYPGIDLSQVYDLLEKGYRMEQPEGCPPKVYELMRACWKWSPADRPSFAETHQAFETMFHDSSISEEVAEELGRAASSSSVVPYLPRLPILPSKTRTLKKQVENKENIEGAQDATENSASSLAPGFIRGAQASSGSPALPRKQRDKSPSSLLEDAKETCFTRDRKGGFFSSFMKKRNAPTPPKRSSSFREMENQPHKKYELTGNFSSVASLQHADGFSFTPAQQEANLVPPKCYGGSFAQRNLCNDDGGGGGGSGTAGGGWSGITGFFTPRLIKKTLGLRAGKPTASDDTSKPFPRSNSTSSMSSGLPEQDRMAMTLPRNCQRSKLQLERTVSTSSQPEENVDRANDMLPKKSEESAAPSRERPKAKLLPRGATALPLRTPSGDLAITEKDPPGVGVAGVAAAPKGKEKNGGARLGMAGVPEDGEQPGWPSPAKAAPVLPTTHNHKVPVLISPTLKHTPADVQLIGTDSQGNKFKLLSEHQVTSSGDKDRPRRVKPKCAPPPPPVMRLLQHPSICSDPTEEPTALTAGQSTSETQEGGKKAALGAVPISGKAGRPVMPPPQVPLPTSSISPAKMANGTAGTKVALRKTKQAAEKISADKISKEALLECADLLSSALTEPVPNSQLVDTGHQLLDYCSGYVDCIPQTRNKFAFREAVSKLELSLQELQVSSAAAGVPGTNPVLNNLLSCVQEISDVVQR

As usually defined, the inhibition is how much of the control response was suppressed. `NC1CCN(c2ncnc3[nH]ccc23)CC1`: the inhibition in [1] stood at 7.5%.

As for `C[C@H](CN(C)C)Oc1nc(Nc2cc3cccc(Cl)c3cn2)cnc1C#N`, in test [2], the inhibition is 2.5%. With `Clc1ccc(C2(c3ccc(-c4ncnc5[nH]cnc45)cc3)CCNCC2)cc1`, the inhibition in test [3] was found to be 0%. Regarding `NC1(Cc2ccc(Cl)cc2)CCN(c2ncnc3[nH]ccc23)CC1`, the inhibition was determined as 56% in [4], 2% in test [5] and 0% in test [6]. On to `NCC1CN(c2ncnc3[nH]c4cnccc4c23)CCO1` (stereo unspecified), for which the inhibition in [7] was 0%. Turning to `NCCc1ccc(-c2ncnc3[nH]cnc23)cc1`, in test [8], the inhibition stood at 65.5%. Regarding `COC(=O)c1cnc(Nc2cnc(C#N)cn2)cc1NCC1CCNCC1`, the inhibition in test [9] is 6%.

As to `c1nc(N2CCOCC2)c2nc[nH]c2n1`, the inhibition in test [10] was found to be 42%. As to `c1cnc2[nH]ccc2c1`, in [11], the inhibition was 73.5%.

The record behind these values is ChEMBL document CHEMBL3132769, “Fragment growing to retain or alter the selectivity of anchored kinase hinge-binding fragments” (Medchemcomm, 2014).
